{"source": "ChEMBL document CHEMBL1275440", "about": "“In vitro activity of telavancin against resistant gram-positive bacteria” (2008)", "assay_type_in_all_cases": "functional", "key": {"[1]": {"system": "Staphylococcus aureus", "test": "Antibacterial activity against methicillin resistant Staphylococcus aureus MED 2028 osteomyelitis isolate assessed as bacterial count at 2 ug/ml after 2 hrs by time-kill assay"}, "[2]": {"system": "Staphylococcus aureus", "test": "Antibacterial activity against methicillin resistant Staphylococcus aureus clinical isolate assessed as susceptibility level by broth microdilution method"}, "[3]": {"system": "Streptococcus mitis", "test": "Antibacterial activity against Streptococcus mitis clinical isolate by broth microdilution method"}, "[4]": {"system": "Streptococcus pyogenes", "test": "Antibacterial activity against Streptococcus pyogenes MED 2040 assessed as bacterial count at […] after 24 hrs by time-kill assay"}, "[5]": {"system": "Streptococcus pyogenes", "test": "Antibacterial activity against Streptococcus pyogenes MED 2040 assessed as bacterial count at 0.5 ug/ml after 4 hrs by time-kill assay"}, "[6]": {"system": "Streptococcus pyogenes", "test": "Antibacterial activity against Streptococcus pyogenes MED 2040 assessed as bacterial count at 8 ug/ml after 8 hrs by time-kill assay"}, "[7]": {"system": "Enterococcus faecalis", "test": "Antibacterial activity against Enterococcus faecalis ATCC 51575 assessed as bacterial count at 2 ug/ml after 24 hrs by time-kill assay"}, "[8]": {"system": "Enterococcus faecalis", "test": "Antibacterial activity against Enterococcus faecalis ATCC 51575 assessed as bacterial count at 8 ug/ml after 24 hrs by time-kill assay"}, "[9]": {"system": "Streptococcus pyogenes", "test": "Antibacterial activity against Streptococcus pyogenes MED 2040 assessed as bacterial count at […] after 8 hrs by time-kill assay"}, "[10]": {"system": "Streptococcus agalactiae", "test": "Antibacterial activity against Streptococcus agalactiae MED 2038 assessed as bacterial count at 8 ug/ml after 8 hrs by time-kill assay"}, "[11]": {"system": "Streptococcus agalactiae", "test": "Antibacterial activity against Streptococcus agalactiae MED 2038 assessed as bacterial count at 2 ug/ml after 2 hrs by time-kill assay"}, "[12]": {"system": "Streptococcus pneumoniae", "test": "Antibacterial activity against multidrug resistant Streptococcus pneumoniae MED 1090 assessed as bacterial count at 8 ug/ml after 24 hrs by time-kill assay"}, "[13]": {"system": "Streptococcus pneumoniae", "test": "Antibacterial activity against multidrug resistant Streptococcus pneumoniae MED 1090 assessed as bacterial count at 2 ug/ml after 2 hrs by time-kill assay"}, "[14]": {"system": "Streptococcus pneumoniae", "test": "Antibacterial activity against multidrug resistant Streptococcus pneumoniae MED 1090 assessed as bacterial count at […] after 24 hrs by time-kill assay"}, "[15]": {"system": "Streptococcus pneumoniae", "test": "Antibacterial activity against multidrug resistant Streptococcus pneumoniae MED 1090 assessed as bacterial count at […] after 8 hrs by time-kill assay"}, "[16]": {"system": "Streptococcus pneumoniae", "test": "Antibacterial activity against multidrug resistant Streptococcus pneumoniae MED 1090 assessed as bacterial count at 0.03 ug/ml after 4 hrs by time-kill assay"}, "[17]": {"system": "Staphylococcus epidermidis", "test": "Antibacterial activity against methicillin resistant Staphylococcus epidermidis ATCC 35984 assessed as bacterial count at 2 ug/ml after 24 hrs by time-kill assay"}, "[18]": {"system": "Staphylococcus aureus", "test": "Antibacterial activity against methicillin resistant Staphylococcus aureus MED 1805 bloodstream isolate assessed as bacterial count at 16 ug/ml after 8 hrs by time-kill assay"}, "[19]": {"system": "Staphylococcus aureus", "test": "Antibacterial activity against methicillin resistant Staphylococcus aureus MED 1805 bloodstream isolate assessed as bacterial count at 16 ug/ml after 4 hrs by time-kill assay"}, "[20]": {"system": "Staphylococcus aureus", "test": "Antibacterial activity against methicillin resistant Staphylococcus aureus MED 1805 bloodstream isolate assessed as bacterial count at 2 ug/ml after 4 hrs by time-kill assay"}, "[21]": {"system": "Staphylococcus aureus", "test": "Antibacterial activity against methicillin resistant Staphylococcus aureus MED 1805 bloodstream isolate assessed as bacterial count at 1 ug/ml after 2 hrs by time-kill assay"}, "[22]": {"system": "Staphylococcus aureus", "test": "Antibacterial activity against methicillin resistant Staphylococcus aureus MED 2028 osteomyelitis isolate assessed as bacterial count at 8 ug/ml after 8 hrs by time-kill assay"}, "[23]": {"system": "Staphylococcus aureus", "test": "Antibacterial activity against methicillin resistant Staphylococcus aureus MED 2028 osteomyelitis isolate assessed as bacterial count at 4 ug/ml after 24 hrs by time-kill assay"}}, "note": "Calls of active or inactive are those of the source. The rule behind the calls is not given here.", "data": [{"smiles": "CCCCCCCCCCNCCN[C@@]1(C)C[C@H](O[C@H]2[C@H](Oc3c4cc5cc3Oc3ccc(cc3Cl)[C@@H](O)[C@@H](NC(=O)[C@@H](CC(C)C)NC)C(=O)N[C@@H](CC(N)=O)C(=O)N[C@H]5C(=O)N[C@H]3C(=O)N[C@H](C(=O)N[C@H](C(=O)O)c5cc(O)c(CNCP(=O)(O)O)c(O)c5-c5cc3ccc5O)[C@H](O)c3ccc(c(Cl)c3)O4)O[C@H](CO)[C@@H](O)[C@@H]2O)O[C@@H](C)[C@H]1O", "note": "[TELAVANCIN]", "values": [{"measurement": "log10CFU/ml", "setting": "[1]", "result": 0.6}, {"measurement": "Activity", "setting": "[2]", "result": 100, "unit": "%"}, {"measurement": "MIC", "setting": "[3]", "result": 0.015, "unit": "µg/mL"}, {"measurement": "MIC50", "setting": "[3]", "result": "inactive"}, {"measurement": "MIC90", "setting": "[3]", "result": "inactive"}, {"measurement": "log10CFU/ml", "setting": "[4]", "result": 2.2}, {"measurement": "log10CFU/ml", "setting": "[5]", "result": 1.6}, {"measurement": "log10CFU/ml", "setting": "[6]", "result": 2.7}, {"measurement": "log10CFU/ml", "setting": "[7]", "result": 0.8}, {"measurement": "log10CFU/ml", "setting": "[8]", "result": 1}, {"measurement": "log10CFU/ml", "setting": "[9]", "result": 0.5}, {"measurement": "log10CFU/ml", "setting": "[10]", "result": 1.8}, {"measurement": "log10CFU/ml", "setting": "[11]", "result": 0.8}, {"measurement": "log10CFU/ml", "setting": "[12]", "result": 3.4}, {"measurement": "log10CFU/ml", "setting": "[13]", "result": 1.8}, {"measurement": "log10CFU/ml", "setting": "[14]", "result": 3.4}, {"measurement": "log10CFU/ml", "setting": "[15]", "result": 3.3}, {"measurement": "log10CFU/ml", "setting": "[16]", "result": 2.7}, {"measurement": "log10CFU/ml", "setting": "[17]", "result": 3.1}, {"measurement": "log10CFU/ml", "setting": "[18]", "result": 2.9}, {"measurement": "log10CFU/ml", "setting": "[19]", "result": 1.6}, {"measurement": "log10CFU/ml", "setting": "[20]", "result": 2.8}, {"measurement": "log10CFU/ml", "setting": "[21]", "result": 0.9}, {"measurement": "log10CFU/ml", "setting": "[22]", "result": 3.4}, {"measurement": "log10CFU/ml", "setting": "[23]", "result": 3.4}]}]}
